Positions of bridges follow the written chain, without caps; N, C: chain ends. Non-standard residues stand in square brackets, D forms with d. Residues, ends and D or L forms follow the SMILES beside them. *: point of attachment. Malonyl(2,2-Me2,histaminyl) = CC(C)(C(=O)NCCc1cnc[nH]1)C(=O)*; Ala(1H-tetrazol-5-yl) = N[C@@H](Cc1nnn[nH]1)C(=O)O; αMePhe(2-F) = C[C@](N)(Cc1ccccc1F)C(=O)O; αMeL = CC(C)C[C@](C)(N)C(=O)O; Nle = CCCC[C@H](N)C(=O)O; Aib = CC(C)(N)C(=O)O
Assays:
human GLP2 receptor = target: T1, human GLP2 receptor (Homo sapiens, UniProt O95838); experiment: cAMP accumulation assay, functional agonism of human GLP2 receptor; format: cell-based; conditions: HEK cells infected with human GLP2 receptor BacMam virus, HTRF cAMP; for Emax: HEK293, read-out: Human GLP-2R agonist cAMP Emax; for EC50: read-out: Human GLP-2R agonist cAMP pEC50 (converted)
T1 construct: expressed in transfected cells; host or cells: HEK cells, BacMam virus transduction
T1 sequence (O95838 1-553): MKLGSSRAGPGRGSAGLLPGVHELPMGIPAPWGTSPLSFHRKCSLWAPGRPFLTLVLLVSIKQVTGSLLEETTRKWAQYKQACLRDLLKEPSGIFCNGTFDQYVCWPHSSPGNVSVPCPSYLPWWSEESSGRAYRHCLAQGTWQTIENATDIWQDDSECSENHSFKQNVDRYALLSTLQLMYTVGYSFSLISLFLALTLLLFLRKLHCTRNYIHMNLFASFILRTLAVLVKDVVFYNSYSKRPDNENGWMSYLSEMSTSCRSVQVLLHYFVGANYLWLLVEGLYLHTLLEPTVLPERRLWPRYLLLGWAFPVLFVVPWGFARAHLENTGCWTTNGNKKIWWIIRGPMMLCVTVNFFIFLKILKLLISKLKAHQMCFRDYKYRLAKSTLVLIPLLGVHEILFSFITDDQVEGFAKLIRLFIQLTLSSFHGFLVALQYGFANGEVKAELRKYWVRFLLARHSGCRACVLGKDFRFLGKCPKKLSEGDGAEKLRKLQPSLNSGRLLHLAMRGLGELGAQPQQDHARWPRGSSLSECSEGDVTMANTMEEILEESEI
Procedure, shortened: (§1)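 cAMP read by HTRF detection reagents in lysis buffer following 45 min agonist exposure at 37 °C. Cells: frozen HEK transduced for 24 h with GLP1 or GLP2 receptor BacMam, suspended in HBSS plus 0.5 mM IBMX.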

human GLP1 receptor = target: T2, human GLP1 receptor (Homo sapiens, UniProt P43220); experiment: cAMP accumulation assay, functional agonism of human GLP1 receptor; format: cell-based; conditions: HEK cells infected with human GLP1 receptor BacMam virus, HTRF cAMP; for Emax: HEK293, read-out: Human GLP-1R agonist cAMP Emax; for EC50: read-out: Human GLP-1R agonist cAMP pEC50 (converted)
T2 construct: expressed in transfected cells; host or cells: HEK cells, BacMam virus transduction
Procedure, shortened: as §1

[1] = Stability of peptides in Fasted-State Simulated Intestinal Fluid (FaSSIF); format: in vitro ADME; conditions: FaSSIF with 10 mg/ml pancreatin, 37° C.; for remaining at 0.5 h: t=30 mins, pH 6.5, 10 mg/ml pancreatin; for remaining at 0.25 h: FaSSIF pH 6.5 with 10 mg/ml pancreatin, t = 15 mins

T2 sequence (P43220 24-463): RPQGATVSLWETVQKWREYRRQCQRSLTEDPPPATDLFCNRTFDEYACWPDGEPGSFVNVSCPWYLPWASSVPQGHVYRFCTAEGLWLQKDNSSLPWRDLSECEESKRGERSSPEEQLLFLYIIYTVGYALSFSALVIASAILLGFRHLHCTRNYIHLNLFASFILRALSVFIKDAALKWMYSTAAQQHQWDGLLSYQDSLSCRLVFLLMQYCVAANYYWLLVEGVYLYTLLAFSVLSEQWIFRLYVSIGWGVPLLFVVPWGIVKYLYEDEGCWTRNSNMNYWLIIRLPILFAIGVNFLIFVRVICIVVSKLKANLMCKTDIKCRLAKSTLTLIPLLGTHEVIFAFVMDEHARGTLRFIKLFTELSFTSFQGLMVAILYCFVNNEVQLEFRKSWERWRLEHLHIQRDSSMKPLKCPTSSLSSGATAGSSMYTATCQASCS

Structure (SMILES)	Emax (human GLP2 receptor) [%]	EC50 (human GLP2 receptor) [nM]	Emax (human GLP1 receptor) [%]	EC50 (human GLP1 receptor) [nM]	remaining at 0.5 h [1] [%]	remaining at 0.25 h [1] [%]
CCCC[C@@H]1NC(=O)[C@H](CCC(=O)O)NC(=O)[C@@H](NC(=O)[C@H](CO)NC(=O)[C@H](Cc2ccccc2)NC(=O)[C@H](CO)NC(=O)CNC(=O)[C@H](Cc2nn[nH]n2)NC(=O)C(C)(C)C(=O)NCCc2c[nH]cn2)CCCCNC(=O)C[C@@H](C(=O)N[C@H](C(=O)N[C@@H](CC(C)C)C(=O)N[C@@H](CC(=O)O)C(=O)N[C@H]2CCC(=O)NCCCC[C@@H](C(=O)N[C@@H](CC(=O)O)C(=O)N[C@@H](Cc3ccccc3)C(=O)N[C@H](C(=O)N[C@@H](CC(N)=O)C(=O)N[C@@H](Cc3c[nH]c4ccccc34)C(=O)N[C@@H](CC(C)C)C(=O)N[C@H](C(=O)N[C@@H](CCC(N)=O)C(=O)N[C@H](C(=O)N[C@H]3CCC(=O)NCCCC[C@@H](C(=O)N4CCC[C@H]4C(N)=O)NC(=O)[C@H]([C@@H](C)O)NC(=O)[C@H]([C@@H](C)CC)NC3=O)[C@@H](C)O)[C@@H](C)CC)[C@@H](C)CC)NC(=O)[C@H](C)NC(=O)[C@H](C)NC(=O)[C@H](CCCCN)NC2=O)[C@@H](C)CC)NC(=O)[C@@H](Cc2ccccc2)NC1=O [Example 13] ({Malonyl(2,2-Me2,histaminyl)}-[Ala(1H-tetrazol-5-yl)]GSFSKE[Nle][dF]DILDEKAAKDFINWLIQTEITKP-NH2; lactam 6-10, 14-18, 28-31 (inferred); C-terminus assumed)	104	0.0316	92.5	0.251	3.8	
CCCC[C@@H]1NC(=O)[C@H](CCC(=O)O)NC(=O)[C@@H](NC(=O)[C@H](CO)NC(=O)[C@](C)(Cc2ccccc2F)NC(=O)[C@H](CO)NC(=O)CNC(=O)[C@H](CC(=O)O)NC(=O)C(C)(C)NC(=O)[C@@H](N)Cc2c[nH]cn2)CCCCNC(=O)C[C@@H](C(=O)N[C@H](C(=O)N[C@@H](CC(C)C)C(=O)N[C@@H](CC(=O)O)C(=O)N[C@H]2CCC(=O)NCCCC[C@@H](C(=O)N[C@@H](CC(=O)O)C(=O)N[C@@H](Cc3ccccc3)C(=O)N[C@H](C(=O)N[C@@H](CC(N)=O)C(=O)N[C@@H](Cc3c[nH]c4ccccc34)C(=O)N[C@@H](CC(C)C)C(=O)N[C@H](C(=O)N[C@@H](CCC(N)=O)C(=O)N[C@H]3CCC(=O)NCCCC[C@@H](C(N)=O)NC(=O)[C@H]([C@@H](C)O)NC(=O)[C@H]([C@@H](C)CC)NC(=O)[C@H](CCCCN)NC3=O)[C@@H](C)CC)[C@@H](C)CC)NC(=O)[C@H](C)NC(=O)[C@H](C)NC(=O)[C@H](CCCCN)NC2=O)[C@@H](C)CC)NC(=O)[C@@H](Cc2ccccc2)NC1=O [Example 18] (H-H[Aib]DGS[αMePhe(2-F)]SKE[Nle][dF]DILDEKAAKDFINWLIQEKITK-NH2; lactam 8-12, 16-20, 29-33; C-terminus assumed)	104	0.0158	97.8	0.1	17.3	
CCCC[C@H](NC(=O)[C@H](CCC(=O)O)NC(=O)[C@H](CC(=O)O)NC(=O)[C@H](CO)NC(=O)[C@H](Cc1ccccc1)NC(=O)[C@H](CO)NC(=O)CNC(=O)[C@H](CC(=O)O)NC(=O)C(C)(C)NC(=O)[C@@H](N)Cc1c[nH]cn1)C(=O)N[C@H]1CC(=O)NCCCC[C@@H](C(=O)N[C@@H](CC(C)C)C(=O)N[C@@H](CCCCN)C(=O)N[C@@H](C)C(=O)N[C@@H](C)C(=O)N[C@@H](CCCCN)C(=O)N[C@@H](CC(=O)O)C(=O)N[C@@H](Cc2ccccc2)C(=O)N[C@H](C(=O)N[C@@H](CC(N)=O)C(=O)N[C@@H](Cc2c[nH]c3ccccc23)C(=O)N[C@@H](CC(C)C)C(=O)N[C@H](C(=O)N[C@@H](CCC(N)=O)C(=O)N[C@H](C(=O)N[C@@H](CCCCN)C(=O)N[C@H](C(=O)N[C@H](C(=O)N[C@@H](CC(=O)O)C(N)=O)[C@@H](C)O)[C@@H](C)CC)[C@@H](C)O)[C@@H](C)CC)[C@@H](C)CC)NC(=O)[C@H](CC(C)C)NC(=O)[C@H]([C@@H](C)CC)NC(=O)[C@H]([C@@H](C)O)NC1=O [Example 86] (H-H[Aib]DGSFSDE[Nle]DTILKLKAAKDFINWLIQTKITD-NH2; lactam 11-15; C-terminus assumed)	103	0.0251	93.5	25.1		5.1
CCCC[C@H](NC(=O)[C@H](CCC(=O)O)NC(=O)[C@H](CC(=O)O)NC(=O)[C@H](CO)NC(=O)[C@H](Cc1ccccc1)NC(=O)[C@H](CO)NC(=O)CNC(=O)[C@H](CC(=O)O)NC(=O)C(C)(C)NC(=O)[C@@H](N)Cc1c[nH]cn1)C(=O)N[C@H](Cc1ccccc1)C(=O)N[C@H](C(=O)N[C@H](C(=O)N[C@@H](CC(C)C)C(=O)N[C@@H](CC(=O)O)C(=O)N[C@@H](CC(C)C)C(=O)N[C@@H](CCCCN)C(=O)N[C@@H](C)C(=O)N[C@@H](C)C(=O)N[C@@H](CCCCN)C(=O)N[C@@H](CC(=O)O)C(=O)N[C@@H](Cc1ccccc1)C(=O)N[C@H](C(=O)N[C@@H](CC(N)=O)C(=O)N[C@@H](Cc1c[nH]c2ccccc12)C(=O)N[C@@H](CC(C)C)C(=O)N[C@H](C(=O)N[C@@H](CCC(N)=O)C(=O)N[C@H](C(=O)N[C@H]1CCC(=O)NCCCC[C@@H](C(N)=O)NC(=O)[C@H]([C@@H](C)O)NC(=O)[C@H]([C@@H](C)CC)NC1=O)[C@@H](C)O)[C@@H](C)CC)[C@@H](C)CC)[C@@H](C)CC)[C@@H](C)O [Example 90] (H-H[Aib]DGSFSDE[Nle][dF]TILDLKAAKDFINWLIQTEITK-NH2; lactam 30-33 (inferred); C-terminus assumed)	102	0.0251	100	7.94		22

The remaining lines, values ahead:

Emax (human GLP2 receptor) [%]	EC50 (human GLP2 receptor) [nM]	Emax (human GLP1 receptor) [%]	EC50 (human GLP1 receptor) [nM]	remaining at 0.5 h [1] [%]	remaining at 0.25 h [1] [%]	Structure (SMILES)
104	0.0398	96.3	0.158	68.7		CCCC[C@H](NC(=O)[C@H](CCC(=O)O)NC(=O)[C@@H]1CC(=O)NCCCC[C@H](NC(=O)[C@H](Cc2nn[nH]n2)NC(=O)C(C)(C)C(=O)NCCc2c[nH]cn2)C(=O)N[C@@H](CO)C(=O)N[C@@H](Cc2ccccc2)C(=O)N[C@@H](CO)C(=O)N1)C(=O)N[C@H](Cc1ccccc1)C(=O)N[C@H](C(=O)N[C@@](C)(CC(C)C)C(=O)N[C@@H](CC(C)C)C(=O)N[C@@H](CC(=O)O)C(=O)N[C@H]1CCC(=O)NCCCC[C@@H](C(=O)N[C@@H](CC(=O)O)C(=O)N[C@@H](Cc2ccccc2)C(=O)N[C@H](C(=O)N[C@H]2CCC(=O)NCCCC[C@@H](C(=O)N[C@H](C(=O)N[C@@H](CCCCN)C(N)=O)[C@@H](C)O)NC(=O)[C@H]([C@@H](C)CC)NC(=O)[C@H](CC(C)C)NC(=O)[C@H](Cc3c[nH]c4ccccc34)NC2=O)[C@@H](C)CC)NC(=O)[C@H](C)NC(=O)[C@H](C)NC(=O)[C@H](CCCCN)NC1=O)[C@@H](C)O [Example 17] ({Malonyl(2,2-Me2,histaminyl)}-[Ala(1H-tetrazol-5-yl)]KSFSDE[Nle][dF]T[αMeL]LDEKAAKDFIEWLIKTK-NH2; lactam 2-6, 14-18, 22-26; C-terminus assumed)
104		96.6		51.7		CCCC[C@H](NC(=O)[C@H](CCC(=O)O)NC(=O)[C@@H]1CC(=O)NCCCC[C@H](NC(=O)[C@H](CC(=O)O)NC(=O)C(C)(C)NC(=O)[C@@H](N)Cc2c[nH]cn2)C(=O)N[C@@H](CO)C(=O)N[C@@H](Cc2ccccc2)C(=O)N[C@@H](CO)C(=O)N1)C(=O)N[C@H](Cc1ccccc1)C(=O)N[C@H](C(=O)N[C@@](C)(CC(C)C)C(=O)N[C@@H](CC(C)C)C(=O)N[C@@H](CC(=O)O)C(=O)N[C@H]1CCC(=O)NCCCC[C@@H](C(=O)N[C@@H](CC(=O)O)C(=O)N[C@@H](Cc2ccccc2)C(=O)N[C@H](C(=O)N[C@H]2CCC(=O)NCCCC[C@@H](C(=O)N[C@H](C(=O)N[C@@H](CCCCN)C(N)=O)[C@@H](C)O)NC(=O)[C@H]([C@@H](C)CC)NC(=O)[C@H](CC(C)C)NC(=O)[C@H](Cc3c[nH]c4ccccc34)NC2=O)[C@@H](C)CC)NC(=O)[C@H](C)NC(=O)[C@H](C)NC(=O)[C@H](CCCCN)NC1=O)[C@@H](C)O [Example 21] (H-H[Aib]DKSFSDE[Nle][dF]T[αMeL]LDEKAAKDFIEWLIKTK-NH2; lactam 4-8, 16-20, 24-28; N-terminus and C-terminus assumed)
